The source of these data is PubChem BioAssay (NCI).

Holding throughout (experiment): NCI tumour cell line growth inhibition, 48 h
For experiment [1], the system named is NCI/ADR-RES ovarian.
Experiment [2] relates to KM12 colon.
Experiment [3] relates to HCT-15 colon.
For experiment [4], the system named is SF-295 CNS.
In experiment [5] the test system is OVCAR-5 ovarian.
Experiment [6] deals with HCT-116 colon.
In experiment [7] the test system is HT29 colon.
Experiment [8] deals with TK-10 renal.
The subject of experiment [9] is HS 578T breast.
Experiment [10] deals with MDA-MB-435.

Values joined by “and” are separate entries in the source; they are usually repeats but may differ in a detail not shown here. Identical values can stand only once.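 Tested at 5 concentrations; 48 h exposure; 96-well plates; endpoints linearly interpolated, else capped at highest concentration. GI50 = concentration required for 50% inhibition of growth. TGI is the concentration that stops growth completely.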 Some results are limits rather than exact numbers.

As for `COc1cc2c(cc1OC)-c1c3c(cc4c1[C@@H](C2)N(C)CC4)OCO3`, the TGI amounted to 30.2 µM in experiment [1]; 45.1 µM in [2]; 40.8 µM in experiment [3]; 16.7 µM in experiment [4]; 37.3 µM in [5]; 36.6 µM in [6]. In experiment [7], this molecule registered a TGI of 28.8 µM.
Consider `NCCCCNCCCNC(=O)c1nc(-c2csc(CCN)n2)sc1Cl`, for which the TGI in [2], in experiment [3], in experiment [4], in experiment [8], in experiment [5] and in experiment [6] was more than 100 µM throughout. This molecule also gave a TGI in experiment [7] of more than 100 µM.
Turning to `CSC1=NS(=O)(=O)c2cc(C(=O)NN(C)C(=O)c3cc4c(cc3Cl)SC(SC)=NS4(=O)=O)c(Cl)cc2S1`, the TGI in experiment [9], in experiment [1], in [2], in experiment [3], in experiment [4] and in [8] was more than 10 µM in each case. For the same molecule, the TGI in experiment [5], in experiment [6] and in [7] was more than 10 µM each time.
On to `COC(=O)[C@@H]1C[C@@]2(C3C=CN(C(=O)C(F)(F)F)C=C3)c3ccccc3N(C(=O)C(F)(F)F)[C@H]2N1C(=O)OC`, for which the TGI in [9] is more than 100 µM; in [1] it was more than 100 µM; in experiment [2], more than 100 µM; in experiment [3], more than 100 µM; in experiment [4], more than 100 µM; in [8] it was 60.5 µM. Further, the TGI in [10], in [5] and in experiment [6] was more than 100 µM throughout.
On to `O=C(N[C@H]1c2ccsc2/C(=N/O)[C@H]1O)C(F)(F)F`, for which the TGI in [9], in [1], in [3], in [4], in experiment [8] and in experiment [10] was more than 100 µM throughout. The TGI in experiment [5], in experiment [6] and in experiment [7] was more than 100 µM in each case.
As for `COc1ccc2c(c1)/c(=C/c1ccc(N(C)C)cc1)c1cc(-c3ccccc3)[n+](C)n12`, the TGI in [9] is 0.44 µM; in experiment [1], more than 100 µM; in [2], 1.71 µM; in experiment [3] it was 4.02 µM; in experiment [8], 5.32 µM and 6.29 µM; in experiment [10], 1.47 µM. For the same molecule, the TGI is 3.17 µM in experiment [5]; 2.59 µM in [6]; 0.566 µM and 0.982 µM in [7]. Besides, the GI50 was 0.711 µM in experiment [8] and 0.0753 µM in experiment [7].
For the molecule `O=C(NCCCNCCNC(=O)c1cc(-c2ccccc2)nc2ccccc12)c1cc(-c2ccccc2)nc2ccccc12`, the TGI was 4.5 µM in experiment [9]; 4.12 µM in [1]; 3.55 µM in experiment [2]; 3.23 µM in experiment [3]; 3.19 µM in [4]; 3.14 µM in [8]. Besides, the results for the TGI in experiment [10], in experiment [6] and in [7] were 3.15 µM, 3.04 µM and 2.91 µM, respectively.
Consider `Nc1cc(N2CCCC2)nc(=O)n1Cc1ccccc1`, for which the TGI in experiment [1], in [2], in experiment [3], in [4], in [8] and in [10] was more than 100 µM throughout. Besides, the TGI in experiment [5], in [6] and in experiment [7] was more than 100 µM each time.
On to `CC1(Cl)CC2C(CC1Sc1nnnn1-c1ccccc1)C2(C)C` (stereo not drawn), for which the TGI in experiment [2], in experiment [3], in experiment [4], in experiment [8], in [5] and in experiment [6] was more than 100 µM each time. In [7], this molecule gave a TGI of more than 100 µM.
For `O=c1[nH]nc(Cc2ccccc2)n1-n1cnnc1`, the TGI in experiment [1], in experiment [2], in experiment [3], in experiment [4], in experiment [8] and in experiment [10] was more than 100 µM throughout. In addition, the TGI in [5], in experiment [6] and in experiment [7] was more than 100 µM each time.
For `CCOc1cc(C2CC(c3ccc(NS(=O)(=O)c4cc([N+](=O)[O-])ccc4C)cc3)=NN2)ccc1O` (stereo not drawn), the TGI is more than 100 µM in experiment [9]; 71.3 µM in experiment [1]; 67.3 µM in [3]; 85.9 µM in experiment [10]; more than 100 µM in experiment [5]; 50.6 µM in experiment [6]. For the same molecule, the TGI in experiment [7] worked out at 72.2 µM.
For `CCc1c(C)c(C#N)c(=S)n(C2OC(CO)C(O)C(O)C2O)c1C` (stereo not drawn), the TGI in [1], in [2], in experiment [3], in experiment [4], in [8] and in [10] was more than 100 µM throughout. Further, the TGI in experiment [5], in experiment [6] and in [7] was more than 100 µM in each case.
Regarding `Cn1c2ccccc2c2c3c(c4c5ccccc5n(C)c4c21)C(=O)c1ccccc1C3=O`, the TGI is more than 100 µM in experiment [1]; more than 100 µM in experiment [2]; more than 100 µM in experiment [3]; more than 100 µM in experiment [4]; 81.3 µM in experiment [8]; more than 100 µM in experiment [10]. Further, the TGI in [5], in experiment [6] and in [7] was more than 100 µM each time.
Regarding `Cn1cnc2c(sc3nc4ccccc4n32)c1=N`, the TGI in experiment [9], in [1], in experiment [3], in [4], in experiment [8] and in [10] was more than 100 µM in each case. The TGI in [5], in experiment [6] and in [7] was more than 100 µM in each case.
With `COc1cccc(-c2cc(=O)c3ccc(C)nc3[nH]2)c1`, the TGI in experiment [9] is more than 100 µM; in experiment [1] it was more than 100 µM; in experiment [4] it was more than 100 µM; in [8] it was more than 100 µM; in experiment [10], 0.0335 µM; in experiment [5] it was more than 100 µM. The TGI in experiment [6] is more than 38.1 µM; in [7], more than 100 µM.
